Reference: the Kinase Knowledgebase extract (Sharma et al. 2016)
“And” between values parts separate entries of the source, which are not always exact repeats. Equal values may be shown once.

Experiments:
[1] = system: MAPK14 (rat); assay: Pharmacokinetic Studies
[2] = system: MAPK14 (Lewis rat); assay: p38 Inhibition (SCW-Induced Arthritis Model)
[3] = target: MAPK14 (human) (UniProt Q16539); assay: TNF-alpha Inhibition; details: thp1
[4] = system: MAPK14 (Balb/c mice); assay: TNF-alpha Inhibition (in vivo)
[5] = target: MAPK14 (mouse); assay: p38 Inhibition

Sequence of MAPK14 (human) (Q16539 whole entry, looked up): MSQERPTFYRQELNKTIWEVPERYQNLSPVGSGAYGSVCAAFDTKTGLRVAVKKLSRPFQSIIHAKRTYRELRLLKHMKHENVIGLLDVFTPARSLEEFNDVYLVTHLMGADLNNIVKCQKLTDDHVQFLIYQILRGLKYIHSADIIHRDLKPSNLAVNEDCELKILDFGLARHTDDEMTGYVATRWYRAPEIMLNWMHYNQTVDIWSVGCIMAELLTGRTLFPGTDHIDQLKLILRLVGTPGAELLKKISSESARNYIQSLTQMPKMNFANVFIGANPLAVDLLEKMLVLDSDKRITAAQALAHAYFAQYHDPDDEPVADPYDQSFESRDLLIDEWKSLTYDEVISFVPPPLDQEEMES

Structure (SMILES) | AUC [1] | IC50 [3] | further results
CN1CCN(C(=O)[C@]2(C)CO[C@@H](c3nc(-c4ccc(F)cc4)c(-c4ccnc(NCC5CC5)n4)[nH]3)OC2)CC1 | 541 ng·h/mL | 2 nM | bioavailability ([1]; dose or concentration not given here): 20%; score [2]: 40 and 34 and 25
COCCNc1nccc(-c2[nH]c([C@H]3OC[C@@](C)(C(=O)NCC4CC4)CO3)nc2-c2ccc(F)cc2)n1 | 121 ng·h/mL |  | 
CN(C)C(=O)[C@]1(C)CO[C@@H](c2nc(-c3ccc(F)cc3)c(-c3ccnc(NCc4ccccn4)n3)[nH]2)OC1 | 529 ng·h/mL | 9 nM | 
CN(C)C(=O)[C@]1(C)CO[C@@H](c2nc(-c3ccc(F)cc3)c(-c3ccnc(NCC4CC4)n3)[nH]2)OC1 | 276 ng·h/mL | 0.2 nM | 
C[C@]1(C(=O)NC2CC2)CO[C@H](c2nc(-c3ccc(F)cc3)c(-c3ccnc(NCC4CC4)n3)[nH]2)OC1 | 288 ng·h/mL |  | 
CCCNC(=O)[C@]1(C)CO[C@@H](c2nc(-c3ccc(F)cc3)c(-c3ccnc(NCc4ccco4)n3)[nH]2)OC1 | 257 ng·h/mL | 3 nM | 
C[C@]1(C(=O)N2CCOCC2)CO[C@H](c2nc(-c3ccc(F)cc3)c(-c3ccncc3)[nH]2)OC1 | 247 ng·h/mL and 628 ng·h/mL | 60 nM | ED50 [4]: Between 3 to 10 mg kg-1; Cp [1]: 277 ng/mL; IC50 [5]: 110000 nM
C[C@@H]1C[C@H]2[C@@H]3CCC4=CC(=O)C=C[C@]4(C)[C@@]3(F)[C@@H](O)C[C@]2(C)[C@@]1(O)C(=O)CO |  |  | score [2]: 22.5
CCCNC(=O)[C@]1(C)CO[C@@H](c2nc(-c3ccc(F)cc3)c(-c3ccnc(NCCCOC)n3)[nH]2)OC1 | 738 ng·h/mL | 3.5 nM | 
C=CCNc1nccc(-c2[nH]c([C@H]3OC[C@@](C)(C(=O)NCCOC)CO3)nc2-c2ccc(F)cc2)n1 | 169 ng·h/mL | 73 nM | 
COCCCNc1nccc(-c2[nH]c([C@H]3OC[C@@](C)(C(=O)NCCOC)CO3)nc2-c2ccc(F)cc2)n1 | 138 ng·h/mL | 71 nM | 
CC(C)NC(=O)[C@]1(C)CO[C@@H](c2nc(-c3ccc(F)cc3)c(-c3ccnc(NCC4CC4)n3)[nH]2)OC1 | 412 ng·h/mL |  | 
